PMC7922534, “Searching for Peptide Inhibitors of T Regulatory Cell Activity by Targeting Specific Domains of FOXP3 Transcription Factor” (Biomedicines, 2021)

Key:
[1] = test system: murine CD4+CD25+ Treg cells; test: In vitro Treg inhibition: anti-CD3 stimulated effector T cells co-cultured with Treg cells, tritiated thymidine incorporation; type: cell-based, mouse; settings: peptide 50 μM; for Treg inhibitory capacity in vitro (proliferation of effector T cells with anti-CD3 in presence of Treg): BALB/c Teff 10^5 + Treg 10^4 cells/well, 3 days, tritiated thymidine; for toxicity in Teff&Treg co-cultures: cpm below cpm of Teff&Treg co-cultures without peptide
Experimental: (§1) In vitro assays were carried out using (i) the Karpas 299 human cell line (ACC-31, DSMZ, Germany), derived from a human lymphoma with a regulatory T cell profile or (ii) using natural Treg cells isolated from the murine splenocytes. To evaluate the effect of peptides on the immunosuppressive activity of the Karpas 299 cell line, a “mixed lymphocyte reaction” (MLR) assay was carried out using peripheral blood mononuclear cells (PBMCs) from two donors (previously tested to induce a strong MLR reaction in co-culture) (1 × 10^5 cells/well per each PBMC) in the presence or absence of Karpas 299 (1 × 10^4 cells/well). Peptides were added at 50 μM to the co-cultures to evaluate their capacity to restore the production of interferon-gamma (IFN-γ) inhibited by Karpas 299. After 48 hours, the supernatants were extracted to measure interferon-gamma (IFN-γ) by means of a commercial ELISA (Pharmingen, San Diego, CA, US). In vitro assays for Treg inhibition using natural Treg cells: Murine CD4+CD25+ (Treg cells), and CD4+CD25-T-cells (effector T cells) were purified from murine spleen cells by using a murine regulatory T-cell isolation kit (Miltenyi Biotec, Bergisch Gladbach, Germany) according to the manufacturer’s instructions. The purity of the resulting T-cell populations was confirmed to be >95% by flow cytometry. Inhibition of murine T regulatory cell function was measured in an in vitro assay of T-cell stimulation. Effector T cells (10^5 cells/well) from BALB/c mice were stimulated in vitro with 2, 5 μg/mL of anti-mouse CD3 antibody (Pharmingen) in the presence/absence of purified Treg cells (10^4 cells/well) and the indicated peptides (50 μM). T-cell proliferation was measured 3 days later as previously described. Percentage of Treg inhibition was calculated using the following formula: % inhibition= 100*((cpm of Teff&Treg co-cultures in the presence of peptide - cpm of Teff&Treg co-cultures)/(cpm of Teff - cpm of Teff&Treg co-cultures)). The Institutional Review Board on Human Subjects (Clínica Universidad de Navarra, Ref 2016.118) approved this research, and informed consent was obtained from all blood donors.

[2] = test system: Karpas 299 human cell line; test: Mixed lymphocyte reaction with Karpas 299 Treg cell line, IFN-γ by ELISA; type: cell-based; settings: MLR of PBMCs from two donors + Karpas 299, peptide 50 μM, 48 h
Experimental: as §1

4T1-FOXP3 cells = test: Proliferation of 4T1-Ctrl and 4T1-FOXP3 tumor cells in vitro; type: cell-based; settings: peptide 50 μM, Figure 2C
Experimental: The cell line 4T1-FOXP3 expressing FOXP3 was generated. 4T1-WT cells were transfected with empty pcDNA3.1 or with pcDNA3.1 FOXP3, expressing FOXP3 gene and neomycin (which confers resistance to G418 antibiotic) to generate 4T1-Ctrl and 4T1-Foxp3 cells. Briefly, 8 × 10^5 cells were seeded in 6-well culture plates one day prior to transfection. The cultures were 60–80% confluent at the time of transfection. Cells were transfected with 5 ug plasmid DNA per well for 6 hours using lipofectimine 2000 transfection reagent (Invitrogen). After 48 hours, 0.3 mg/mL of G418 drug (GIBCO) was added to the culture during 14 days for the selection of resistant cells. These cells were used in vitro to measure the effect of peptides to overcome the proliferative capacity inhibited by FOXP3. In addition, 4T1-FOXP3 and 4T1-Ctrl cells were injected in vivo (10^5 cells/ mouse) subcutaneously or intravenously to compare their capacity to induce tumors and lung metastases. Murine Lewis lung carcinoma expressing OVA, LLCOVA were kindly provided by Dr. Daniel Ajona (CIMA). The murine colon adenocarcinoma cell line MC38, LLOOVA, 4T1-Ctrl, and 4T1-FOXP3 were cultured in mouse medium (RPMI 1640, 10% fetal calf serum (Sigma), 100 U/mL penicillin, 100 μg/mL streptomycin (Invitrogene), […] Gentamicin (Gibco), 2 mM L-Glutamine (Lifetechnologies), […] β-mercaptoethanol (Sigma), and fungizone (GIBCO). All cell lines were cultured at 37 °C in a humidified atmosphere with 6.5% CO2.

FOXP3 = test: Surface plasmon resonance binding of peptides to a chip coated with FOXP3; settings: peptide 10 μM; Figure 4A
Experimental: (§2) The screening of peptide binders to FOXP3 was performed by surface plasmon resonance (SPR) using a ProteOn XPR36 (Bio-Rad, Hercules CA, USA) optical biosensor. Recombinant protein FOXP3-6His produced and purified from E-coli was immobilized covalently onto a GLC sensor chip (Bio-Rad) using the coupling reagents sulfo-NHS (N-Hydroxysulfosuccinimide) and EDC (1-Ethyl-3-(3-dimethylaminopropyl) carbodiimide, (Bio-Rad) as previously described. Peptide solutions (10 μM) were injected by triplicate in running buffer (phosphate-buffered saline, 0.005% (v/v) Tween 20, pH 7.4) at a flow of 30 μL/min. The interspot signal (obtained in the chip surface not immobilized with protein) was used as reference. FOXP3/NFAT1 and FOXP3/AML1 interactions were analyzed by Alphascreen technology as previously described according to the manufacturer’s protocol (Perkin Elmer, Benelux). Reactions were performed in a 40 μL final volume in 96-well Optiwell microtiter plates (Perkin Elmer). The reaction buffer contained 20 mM HEPES (4-(2-hydroxyethyl)-1-piperazineethanesulfonic acid), pH 7.9, 200 mM KCl, 1 mM MgCl2 and 0.05% bovine serum albumin (BSA). Recombinant NFAT1 expressed with a hexa-Histidine tag was captured by nickel chelate acceptor beads, whereas recombinant FOXP3 expressed with a GST (glutathione S-transferase) tag was captured by glutathione donor beads (Perkin Elmer). For FOXP3 dimerization assays, GST-tagged FOXP3 and His-tagged FOXP3 were co-cultured in the presence or absence of the indicated peptides for 1 h. Then, donor and acceptor beads were added as described above and incubated for 2 h. FOXP3/AML1 interaction was measured following a similar protocol using FOXP3-GST and AML1-His proteins. Exposure of the reaction to direct light was avoided as much as possible, and the emission of light from the acceptor beads was measured in the EnVision plate reader after the indicated incubation period (Perkin Elmer, Benelux).

[3] = test system: murine CD4+CD25+ Treg cells; test: In vitro Treg inhibition: anti-CD3 stimulated effector T cells co-cultured with Treg cells, tritiated thymidine incorporation; type: cell-based, mouse; settings: peptide 10 μM (not shown)
FOXP3/NFAT1 = test: FOXP3/NFAT interaction by Alphascreen; type: binding; settings: alpha screen; Figure 6C
Experimental: as §2, with “The reaction buffer contained 20 mM HEPES (4-(2-hydroxyethyl)-1-piperazineethanesulfonic acid), pH 7.9, 200 mM KCl, 1 mM MgCl2 and 0.05% bovine serum albumin (BSA). Recombinant NFAT1 expressed with a hexa-Histidine tag was captured by nickel chelate acceptor beads, whereas recombinant FOXP3 expressed with a GST (glutathione S-transferase) tag was captured by glutathione donor beads (Perkin Elmer). For FOXP3 dimerization assays, GST-tagged FOXP3 and His-tagged FOXP3 were co-cultured in the presence or absence of the indicated peptides for 1 h. Then, donor and acceptor beads were added as described above and incubated for 2 h.” left out

FOXP3-6His = molecular target: T1, FOXP3-6His (UniProt Q9BZS1-1 1-417); test: SPR; FOXP3-6His immobilised covalently on a GLC sensor chip (ProteOn XPR36); peptides 10 uM injected in triplicate; PBS, 0.005% Tween 20, pH 7.4; 30 uL/min; interspot signal as reference; settings: both partners purified
T1 construct: FOXP3 (Forkhead box protein 3) transcription factor; also called His-tagged FOXP3
T1 sequence (looked up): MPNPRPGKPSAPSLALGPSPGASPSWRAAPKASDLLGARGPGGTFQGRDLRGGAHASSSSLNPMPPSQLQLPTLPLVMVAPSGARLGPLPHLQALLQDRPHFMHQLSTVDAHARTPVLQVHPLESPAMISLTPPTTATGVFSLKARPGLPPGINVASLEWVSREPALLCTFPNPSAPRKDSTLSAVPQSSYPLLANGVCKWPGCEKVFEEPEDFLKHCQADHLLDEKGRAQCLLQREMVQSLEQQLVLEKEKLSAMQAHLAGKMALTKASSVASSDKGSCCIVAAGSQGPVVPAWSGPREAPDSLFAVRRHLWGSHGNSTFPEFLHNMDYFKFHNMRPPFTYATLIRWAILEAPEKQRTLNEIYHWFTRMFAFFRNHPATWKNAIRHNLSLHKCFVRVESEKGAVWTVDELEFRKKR

CGISYGRKKRRQRRR-KCFVRVESEKG [TAT-393–403, peptide F393–403 fused to the cell-penetrating peptide TAT (Tat 44–57)]
Treg inhibitory capacity in vitro (proliferation of effector T cells with anti-CD3 in presence of Treg) [1]: significantly improved the Treg inhibitory capacity

GGFSLHPWWRFNHDR [p65]
Treg inhibitory capacity (Karpas MLR assays) [2]: potential Treg inhibitory capacity | effect on tumor-suppressor activity of FOXP3 (proliferation of 4T1-FOXP3 versus 4T1-Ctrl cells) (4T1-FOXP3 cells): able to inhibit the tumor-suppressor activity

IRGLRFGPGFMWPTL [p50]
Treg inhibitory capacity (Karpas MLR assays) [2]: potential Treg inhibitory capacity | effect on tumor-suppressor activity of FOXP3 (proliferation of 4T1-FOXP3 versus 4T1-Ctrl cells) (4T1-FOXP3 cells): able to inhibit the tumor-suppressor activity

IYHWFTRMFAFFRNH [F363–377, 15-mer overlapping peptide from the FKH domain of FOXP3]
binding capacity to FOXP3 by SPR (FKH domain peptides) (FOXP3): good binders to FOXP3 | toxicity in Teff&Treg co-cultures [1]: some toxicity | Treg inhibitory capacity in vitro [3]: did not exhibit Treg inhibitory capacity | toxicity in Teff&Treg co-cultures [3]: no toxicity was observed

KCFVRVESEKGAVWT [F393–407, 15-mer overlapping peptide from the FKH domain of FOXP3]
level of T-cell proliferation in presence of peptide versus anti-CD3 stimulated T-cells without Treg [1]: surpassed the maximum proliferation of T-cells stimulated with anti-CD3 in the absence of Treg cells | Treg inhibitory capacity in vitro (proliferation of effector T cells with anti-CD3 in presence of Treg) [1]: strong Treg inhibitory capacity

NAIRHNLSLHKCFVR [F383–397, 15-mer overlapping peptide from the FKH domain of FOXP3]
binding capacity to FOXP3 by SPR (FKH domain peptides) (FOXP3): good binders to FOXP3

NLSLHKCFVRVESEK [F388–402, 15-mer overlapping peptide from the FKH domain of FOXP3]
Treg inhibitory capacity in vitro (proliferation of effector T cells with anti-CD3 in presence of Treg) [1]: strong Treg inhibitory capacity

PATWKNAIRHNLSLH [F378–392, 15-mer overlapping peptide from the FKH domain of FOXP3]
binding capacity to FOXP3 by SPR (FKH domain peptides) (FOXP3): good binders to FOXP3

RRIVSQLLHPLWSMP [p61]
Treg inhibitory capacity (Karpas MLR assays) [2]: potential Treg inhibitory capacity

RRQIHLVLPWRAVQS [p52]
Treg inhibitory capacity (Karpas MLR assays) [2]: potential Treg inhibitory capacity | effect on tumor-suppressor activity of FOXP3 (proliferation of 4T1-FOXP3 versus 4T1-Ctrl cells) (4T1-FOXP3 cells): able to inhibit the tumor-suppressor activity

RSRFFAPFAFLSSGL [p53]
Treg inhibitory capacity (Karpas MLR assays) [2]: potential Treg inhibitory capacity

RTLNEIYHWFTRMFA [F358–372, 15-mer overlapping peptide from the FKH domain of FOXP3]
Treg inhibitory capacity in vitro (proliferation of effector T cells with anti-CD3 in presence of Treg) [1]: strong Treg inhibitory capacity

RVESEKGAVW [397–406 L, linear version of peptide F397–406 from the FKH domain]
disruption of FOXP3-NFAT heterodimerization (FOXP3/NFAT1): retained the activity to impair Foxp3/NFAT interaction

TRMFAFFRNHPATWK [F368–382, 15-mer overlapping peptide from the FKH domain of FOXP3]
binding capacity to FOXP3 by SPR (FKH domain peptides) (FOXP3): good binders to FOXP3 | toxicity in Teff&Treg co-cultures [1]: some toxicity | Treg inhibitory capacity in vitro [3]: did not exhibit Treg inhibitory capacity | toxicity in Teff&Treg co-cultures [3]: no toxicity was observed

WAILEAPEKQRTLNE [F348–362, 15-mer overlapping peptide from the FKH domain of FOXP3]
Treg inhibitory capacity in vitro (proliferation of effector T cells with anti-CD3 in presence of Treg) [1]: strong Treg inhibitory capacity

B1: p47 (peptide)
peptide: GMRFFPWLGVGFAMR
notes: source: synthetic peptide
SPR response (FOXP3-6His): > 500 RU

B2: p59 (peptide)
peptide: RFWDYDLMLRVLRPL
notes: source: synthetic peptide
SPR response (FOXP3-6His): > 500 RU

B3: p60 (peptide)
peptide: RDFQSFRKMWPFFAM
notes: source: synthetic peptide
SPR response (FOXP3-6His): > 500 RU

B4: p50 (peptide)
peptide: IRGLRFGPGFMWPTL
notes: source: synthetic peptide
SPR response (FOXP3-6His): > 500 RU

B5: p52 (peptide)
peptide: RRQIHLVLPWRAVQS
notes: source: synthetic peptide
SPR response (FOXP3-6His): > 500 RU

B6: p65 (peptide)
peptide: GGFSLHPWWRFNHDR
notes: source: synthetic peptide
SPR response (FOXP3-6His): > 500 RU

B7: p49 (peptide)
peptide: GLRERMRLPFFVFGG
notes: source: synthetic peptide
SPR response (FOXP3-6His): > 500 RU

B8: p55 (peptide)
peptide: SSKSLAAPLGLFVVG
notes: source: synthetic peptide
SPR response (FOXP3-6His): > 500 RU
